We go through 11 molecules from ChEMBL document CHEMBL1799910, “Optimization of 1,2,3,4-tetrahydroacridin-9(10H)-ones as antimalarials utilizing structure-activity and structure-property relationships” (J Med Chem, 2011).

The test system of data set [1] is Plasmodium falciparum. The data set is described as follows: Antimalarial activity against chloroquine and pyrimethamine-resistant Plasmodium falciparum W2 infected in human A positive erythrocytes after 72 hrs by SYBR Green I assay. The format is functional, organism-based. Conditions: W2, 72 h.
For data set [2], the system named is Plasmodium falciparum. The data set is described as follows: Antimalarial activity against chloroquine, mefloquine, pyrimethamine and atovaquone-resistant Plasmodium falciparum TM90-C2B infected in human A positive erythrocytes after 72 hrs by SYBR Green I assay. The format is functional, organism-based.
Data set [3] deals with Plasmodium falciparum. The data set is described as follows: Resistance index, ratio of EC50 for chloroquine, mefloquine, pyrimethamine and atovaquone-resistant Plasmodium falciparum TM90-C2B to EC50 for chloroquine and pyrimethamine-resistant Plasmodium falciparum W2. The format is functional.
The next data set has as its system J774. The data set is described as follows: Cytotoxicity against mouse J774 cells after 72 hrs by Cell titer 96 aqueous one solution cell proliferation assay. The format is cell-based. Particulars: J774, 72 h.
The nature of data set [4]: Aqueous solubility of compound at pH 7.4 by HPLC analysis. Particulars: buffer.
A short description of data set [5]: Permeability of the compound by PAMPA method at pH 7.4. The format is ADME. Particulars: read-out: permeability. (The PAMPA barrier holds no transporters, so it reflects passive diffusion.)
Data set [6] is described as follows: Partition coefficient, log D of the compound at pH 7.4 by HPLC analysis. Conditions: octanol/water.
A short description of data set [7]: Cytotoxicity index, ratio of EC50 for mouse J774 cells to EC50 for chloroquine, mefloquine, pyrimethamine and atovaquone-resistant Plasmodium falciparum TM90-C2B. Particulars: read-out: Ratio EC50. The format is cell-based.

Each structure is given as a SMILES string. Values after ≈ are worked out from the molar mass of the structure shown. Bounds are passed on as bounds.

As to `O=c1c2c([nH]c3c(Cl)c(Cl)ccc13)CCCC2`, the results for the EC50 in the data set on Plasmodium falciparum [1], with Plasmodium falciparum [2] and with J774 were 6.33 µM, over 9.33 µM and over 20 µM, respectively. Further, in the data set on Plasmodium falciparum [3], the “Ratio EC50” value was over 1.47. The same molecule came in with a solubility in data set [4] of 41 µM (≈ 11 µg/mL). Moreover, the Papp in data set [5] came to 3480 nm/s. In addition, in data set [6], the log distribution coefficient (logD) turned out to be 2.9. Further, the selectivity ratio in data set [7] is at least 100.

`O=c1c2c([nH]c3cc(Br)ccc13)CCCC2`: the results for the EC50 with Plasmodium falciparum [1], in the data set on Plasmodium falciparum [2] and in the data set on J774 were 0.0777 µM, 0.115 µM and over 10 µM, respectively. Further, the “Ratio EC50” value in the data set with Plasmodium falciparum [3] is given as 1.48. In data set [4], this molecule displayed a solubility of 14 µM (≈ 3.89 µg/mL). The Papp in data set [5] came out at 700 nm/s. In data set [6], the logD is 2.8. Moreover, the selectivity ratio in data set [7] is at least 100.

`COc1cc2c(=O)c3c([nH]c2cc1Cl)CCCC3`: the results for the EC50 in the data set on Plasmodium falciparum [1], in the data set with Plasmodium falciparum [2] and with J774 were 0.0352 µM, 0.0115 µM and over 20 µM, respectively. Further, the “Ratio EC50” value in the data set on Plasmodium falciparum [3] amounted to 0.33. The solubility in data set [4] amounted to 33 µM (≈ 8.7 µg/mL). For the same molecule, the Papp in data set [5] is 240 nm/s. For the same molecule, the logD in data set [6] stood at 1.3. In data set [7], the selectivity ratio is at least 100.

As for `O=c1c2c([nH]c3cc(C(F)(F)F)ccc13)CCCCC2`, the EC50 in the data set on Plasmodium falciparum [1] is 4.89 µM; with Plasmodium falciparum [2] it was over 4.34 µM; with J774, over 10 µM. For the same molecule, the “Ratio EC50” value in the data set with Plasmodium falciparum [3] is recorded as over 0.88. For the same molecule, the solubility in data set [4] was found to be 17 µM (≈ 4.78 µg/mL). For the same molecule, the Papp in data set [5] was 1310 nm/s. The molecule further registered a logD in data set [6] of 3. For the same molecule, the selectivity ratio in data set [7] is at least 100.

Turning to `O=c1c2c([nH]c3ccc(Cl)cc13)CCCC2`, the EC50 with Plasmodium falciparum [1] is 0.0994 µM; in the data set with Plasmodium falciparum [2], 0.0634 µM; with J774, over 2 µM. Besides, the “Ratio EC50” value with Plasmodium falciparum [3] is reported as 0.63. In data set [4], this molecule came in with a solubility of 4 µM (≈ 0.935 µg/mL). Further, in data set [5], the Papp was 570 nm/s. The pH-dependent lipophilicity (logD) in data set [6] was 2. Besides, the selectivity ratio in data set [7] is at least 100.

As for `O=c1c2c([nH]c3ccc(-c4ccc(COc5ccccc5)cc4)cc13)CCSC2`, the values for the EC50 in the data set with Plasmodium falciparum [1], in the data set on Plasmodium falciparum [2] and in the data set with J774 were 0.0445 µM, 0.706 µM and over 1 µM, respectively. Further, in the data set with Plasmodium falciparum [3], the “Ratio EC50” value worked out at 15.9. Further, the concentration in solution in data set [4] (solubility) was 1 µM (≈ 0.4 µg/mL). The Papp in data set [5] worked out at 70 nm/s. In data set [6], this molecule came in with a logD of 2.8. Moreover, the selectivity ratio in data set [7] was at least 100.

`CC1(C)CCc2[nH]c3ccc(Cl)cc3c(=O)c2C1`: the figures for the EC50 in the data set with Plasmodium falciparum [1], in the data set with Plasmodium falciparum [2] and in the data set with J774 were 0.256 µM, 0.118 µM and over 40 µM, respectively. For the same molecule, the “Ratio EC50” value in the data set with Plasmodium falciparum [3] is reported as 0.46. This molecule also displayed a solubility in data set [4] of 1 µM (≈ 0.262 µg/mL). Also, the Papp in data set [5] was 630 nm/s. Further, the logD in data set [6] came out at 2.6. For the same molecule, the selectivity ratio in data set [7] is at least 100.

Consider `O=c1c2c([nH]c3ccc(-c4ccc(F)cc4F)cc13)CCSC2`, for which the EC50 in the data set on Plasmodium falciparum [1] was 0.193 µM; in the data set with Plasmodium falciparum [2], 0.0784 µM; in the data set on J774, over 5 µM. Besides, the “Ratio EC50” value with Plasmodium falciparum [3] worked out at 0.41. The molecule further had a solubility in data set [4] of 7 µM (≈ 2.31 µg/mL). Besides, the Papp in data set [5] was found to be 100 nm/s. In addition, in data set [6], the logD is 3.6. For the same molecule, the selectivity ratio in data set [7] is at least 100.

Turning to `Cc1ccc2c(=O)c3c([nH]c2c1)CC(C)(C)CC3`, the results for the EC50 in the data set with Plasmodium falciparum [1], with Plasmodium falciparum [2] and with J774 were 1.46 µM, 0.965 µM and over 10 µM, respectively. Also, the “Ratio EC50” value in the data set on Plasmodium falciparum [3] is 0.66. Moreover, the solubility in data set [4] is 17 µM (≈ 4.1 µg/mL). Besides, the Papp in data set [5] came to 530 nm/s. The molecule further had a logD in data set [6] of 2.49. Besides, in data set [7], the selectivity ratio was at least 100.

Consider `O=c1c2c([nH]c3cc([N+](=O)[O-])ccc13)CCCC2`, for which the figures for the EC50 in the data set with Plasmodium falciparum [1], with Plasmodium falciparum [2] and in the data set with J774 were 1.05 µM, 0.959 µM and over 2 µM, respectively. Besides, the “Ratio EC50” value with Plasmodium falciparum [3] was 0.91. The concentration in solution in data set [4] (solubility) was 3 µM (≈ 0.733 µg/mL). Also, the Papp in data set [5] was found to be 630 nm/s. In addition, the logD in data set [6] turned out to be 1.5. Moreover, the selectivity ratio in data set [7] was at least 100.

On to `O=c1c2c([nH]c3cc(Cl)ccc13)CCCC2`, for which the EC50 is 0.137 µM with Plasmodium falciparum [1], 0.122 µM in the data set with Plasmodium falciparum [2] and over 10 µM in the data set with J774. In addition, the “Ratio EC50” value with Plasmodium falciparum [3] came out at 0.89. Further, in data set [4], the solubility turned out to be 15 µM (≈ 3.51 µg/mL). The Papp in data set [5] is 750 nm/s. Further, in data set [6], the logD was 2.2. Moreover, the selectivity ratio in data set [7] is at least 100.

The term EC50 denotes the concentration giving half of the maximal effect. As a reminder, the solubility is the dissolved amount per volume that the medium holds. Low values mean little dissolved substance, high ones much dissolved substance. By logD is commonly meant the decadic logarithm of the distribution of all forms, ionised or not, between an organic phase and buffer at a given pH.
